The values below come from patent publication US8906960B2, “Synergistic effect of tocotrienols and curcumin” (Malaysian Palm Oil Board, priority 2010, dated 2014).

The IC50 is the point on the concentration scale where inhibition reaches its midpoint.

Test [1] has as its system MCF-7 human breast cancer cells. Kind of test: Cell growth experiment: inhibition of proliferation of MCF-7 cells (viable cell count after 72 hours). Type of test: cell-based. On the procedure: Stock solution of TRF and curcumin was prepared in dimethyl sulfoxide (DMSO) at a concentration of 10 mg/mL. For cell growth experiments (as described below), treatments of TRF and curcumin were diluted in phenol red-free RPMI 1640 medium supplemented with 5% dextran-charcoal-treated […]) to final concentrations of 1-100 μM in test medium. MCF-7 cells were suspended from T75 flask by treatment of trypsin to an equal volume of phenol red free RPMI 1640 medium supplemented with 5% dextran-charcoal treated […]), 1% penicillin-streptomycin, 1% L-glutamine and counted on a haemocytometer. Cells were added to the required volume of phenol red free RPMI medium supplemented with 5% dextran-charcoal treated […]), 1% penicillin-streptomycin, 1% L-glutamine. […] MCF-7 cells were seeded in each well of 24-well tissue culture dishes. […] Cell proliferation was measured by using an automated particle counter, Beckman Coulter Particle Counter. […] The nuclei released were counted in isoton on a Coulter particle counter. […] The IC50 value was calculated as an average of three generated value of each replicates. Comparisons between means of six groups were assessed for significance. […]

Test [2] relates to B16F-10 melanoma lung metastasis. To be noted: cited from earlier work.
Test [3] concerns PC-3, a prostate cancer cell. Conditions: PC-3 prostate cancer cell; cited from earlier work.
Test [4] relates to vascular cell adhesion molecule-1 (VCAM-1) expression; THP-1 adhesion to HUVECs. Conditions: suppression of VCAM-1 expression and THP-1 adhesion to HUVECs; cited from earlier work.

Structures are written as SMILES.

Turning to `COc1cc(/C=C/C(=O)CC(=O)/C=C/c2ccc(O)c(OC)c2)ccc1O` [Curcumin], the IC50 in test [1] (Homo sapiens, MCF7, MCF-7 cells, 72 hours, 10^-8 M estradiol, test compounds 1-100 μM, combinations with 1 μM of the second ingredient) stood at 25.3 µM. Further, the “Effect of curcumin on the anti-proliferative effect of tocotrienols” value in test [1] (estrogen-positive MCF-7 human breast cancer cells in vitro) is on record as “synergistically enhanced the anti-proliferative effect of tocotrienols”. Besides, in test [2] (mice treated with curcumin), the “Increase of life span of the animals” value is reported as 143.85%. The “Reduction of the number of lung tumor nodules” value in test [2] (oral administration, 200 nmol/kg body weight, mice) is on record as 80%.

With `CC(C)=CCC/C(C)=C/CC/C(C)=C/CC[C@]1(C)CCc2cc(O)cc(C)c2O1` [δ-tocotrienol], the “Effect on proliferation of PC-3” value in test [3] is “inhibit the proliferation”.

As to `CC(C)=CCC/C(C)=C/CC/C(C)=C/CC[C@]1(C)CCc2c(C)c(O)c(C)c(C)c2O1` [α-tocotrienol], in test [4], the “Efficacy relative to α-tocopherol” value is reported as 10 fold.

Turning to `CC(C)=CCC/C(C)=C/CC/C(C)=C/CC[C@]1(C)CCc2cc(O)c(C)c(C)c2O1` [γ-tocotrienol], the “Effect on proliferation of PC-3” value in test [3] is “inhibit the proliferation”.

With `Cc1c(C)c2c(c(C)c1O)CC[C@@](C)(CCC[C@H](C)CCC[C@H](C)CCCC(C)C)O2` [α-tocopherol], in test [3], the “Effect on proliferation of PC-3” value was “no significant effects”.
